Laboratory results reported in paper PMC11945486, “TAS1R2/TAS1R3 Single-Nucleotide Polymorphisms Affect Sweet Taste Receptor Activation by Sweeteners: The SWEET Project” (Nutrients, 2025).
Where two headings read alike, the source gives them in different places. No end group written: not given here.

T1: human TAS1R2-WT/TAS1R3-S446N (Homo sapiens, UniProt Q7RTX0+Q8TE23, S446N)
T1 construct: expressed in transfected cells; host or cells: HEK293T stably expressing Gα16gust44
T1 sequence (Q8TE23 20-839): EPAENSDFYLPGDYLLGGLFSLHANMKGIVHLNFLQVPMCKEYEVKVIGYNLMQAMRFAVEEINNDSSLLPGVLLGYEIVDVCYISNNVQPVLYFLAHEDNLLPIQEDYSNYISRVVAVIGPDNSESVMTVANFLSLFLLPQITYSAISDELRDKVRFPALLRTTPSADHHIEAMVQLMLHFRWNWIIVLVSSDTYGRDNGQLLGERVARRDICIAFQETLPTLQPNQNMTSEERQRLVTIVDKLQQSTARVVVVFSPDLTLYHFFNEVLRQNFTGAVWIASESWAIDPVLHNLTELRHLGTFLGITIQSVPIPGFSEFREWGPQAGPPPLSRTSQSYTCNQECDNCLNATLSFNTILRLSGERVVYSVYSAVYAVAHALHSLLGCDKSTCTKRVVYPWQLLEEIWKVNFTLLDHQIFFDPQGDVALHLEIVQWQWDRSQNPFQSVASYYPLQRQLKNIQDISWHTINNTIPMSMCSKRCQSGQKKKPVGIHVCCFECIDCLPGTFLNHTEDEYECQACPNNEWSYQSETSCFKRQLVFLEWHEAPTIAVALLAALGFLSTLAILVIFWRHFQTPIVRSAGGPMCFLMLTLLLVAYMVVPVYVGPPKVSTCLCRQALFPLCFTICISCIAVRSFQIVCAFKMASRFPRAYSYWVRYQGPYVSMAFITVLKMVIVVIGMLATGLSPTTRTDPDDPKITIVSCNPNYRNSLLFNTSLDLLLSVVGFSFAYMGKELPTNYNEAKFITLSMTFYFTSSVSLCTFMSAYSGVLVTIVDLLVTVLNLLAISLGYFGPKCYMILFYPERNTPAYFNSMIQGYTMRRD
T1 sequence (Q7RTX0 21-852 S446N): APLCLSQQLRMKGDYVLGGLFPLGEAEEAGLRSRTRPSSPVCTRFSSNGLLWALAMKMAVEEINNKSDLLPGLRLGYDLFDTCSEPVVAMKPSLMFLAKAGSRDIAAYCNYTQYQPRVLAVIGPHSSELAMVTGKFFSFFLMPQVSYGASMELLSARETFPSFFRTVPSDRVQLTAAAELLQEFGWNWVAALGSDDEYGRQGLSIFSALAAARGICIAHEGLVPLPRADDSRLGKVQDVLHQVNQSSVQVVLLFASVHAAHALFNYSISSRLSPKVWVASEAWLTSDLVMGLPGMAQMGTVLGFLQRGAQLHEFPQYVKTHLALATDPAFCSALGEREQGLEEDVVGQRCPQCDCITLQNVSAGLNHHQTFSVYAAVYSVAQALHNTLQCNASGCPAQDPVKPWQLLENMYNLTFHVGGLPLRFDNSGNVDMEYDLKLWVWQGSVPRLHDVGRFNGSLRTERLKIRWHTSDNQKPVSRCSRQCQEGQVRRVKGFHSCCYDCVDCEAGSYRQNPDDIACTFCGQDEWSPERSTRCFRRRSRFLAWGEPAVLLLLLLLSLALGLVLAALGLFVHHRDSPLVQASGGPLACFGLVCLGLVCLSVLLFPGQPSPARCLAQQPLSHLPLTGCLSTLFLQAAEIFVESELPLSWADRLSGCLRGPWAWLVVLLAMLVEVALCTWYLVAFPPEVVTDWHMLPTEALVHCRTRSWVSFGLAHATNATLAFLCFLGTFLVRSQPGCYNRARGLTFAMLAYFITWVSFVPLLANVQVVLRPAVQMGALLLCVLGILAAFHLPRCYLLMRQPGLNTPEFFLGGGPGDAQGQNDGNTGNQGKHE


Target: T1, human TAS1R2-WT/TAS1R3-S446N
Test: Calcium mobilisation assay, TAS1R2-WT with TAS1R3 variant S446N
Type: cell-based
Details: for Max ΔF/F0: maximal signal amplitude
Source text: The coding sequences for TAS1R2 and TAS1R3 were commercially synthesised, and the human codon was optimised for expression in human cells. The coding sequences of human TAS1R2 and TAS1R3 were subcloned and inserted into the mammalian expression vectors pcDNA6/myc-HisA and pcDNA4/myc-HisA (Invitrogen; Thermo Fisher Scientific; Illkirch, France) between the EcoRI and NotI restriction sites, generating the plasmids pcDNA6-TAS1R2 and pcDNA4-TAS1R3, respectively. To increase protein expression in mammalian cells, an upstream start codon was used, which was a sequence called MAX, corresponding to the QBI SP163 element also described in pcDNA4-HisMax (Invitrogen; Thermo Fisher Scientific; Illkirch, France). To measure the expression level of the receptor by immunohistochemistry, we used the FLAG sequence ([…]) in the C-terminal position, which encodes the FLAG tag epitope. SNP variants of TAS1R2 and TAS1R3 were constructed based on […], respectively, using site-directed mutagenesis (Genewiz; Leipzig, Germany).
The HEK293T cells were kindly provided by Jay P. Slack (Givaudan Flavors Corporation; Cincinnati, OH, USA). HEK293T cells stably transfected with Gα16gust44 [43, 67] were seeded in poly-D-lysine-coated clear-bottom black 96-well plates (0.35 × 10^5 cells/well) in high-glucose DMEM supplemented with 2 mM GlutaMAX, 10% dialysed foetal bovine serum with penicillin/streptomycin and G418 (400 μg/mL) at 37 °C and 6.3% CO2 in a humidified atmosphere as previously reported. […] As a negative control, HEK293T cells were mock-transfected with the empty expression vector. After a further 24 h of incubation, the HEK293T cells were washed with C1 buffer (130 mM NaCl, 5 mM KCl, 10 mM HEPES pH 7.4 and 2 mM CaCl2). The 96-well plates containing the cells were then stimulated with sweet-tasting compounds. […] Different concentration ranges were tested depending on the sweet compound injected. The Ca^2+ changes were expressed as fractional changes in fluorescent light intensity: ΔF/F = (F − F0)/F0, where F was the fluorescent light intensity at each point, and F0 was the value of emitted fluorescent light prior to stimulus application. To calculate dose–response relationships, the changes in fluorescence upon stimulus application were averaged, mock-subtracted and baseline-corrected. The dose–response data obtained were adjusted using a 4-parameter logistic equation. The half-maximal effective concentrations (EC50 values) and maximal signal amplitudes were calculated using SigmaPlot software (version 15.0) (Systat Software; San Jose, CA, USA).
For in vitro calcium mobilisation assay performed on hTAS1R2-SNPs, hTAS1R3-SNPs and mTAS1R3-I60T, 6 to 7 concentrations were tested for each sweet compound, plus buffer alone. All concentration–receptor combinations were measured in duplicate, and each experiment was repeated at least 4 times (8 wells/concentration). Results were expressed for each concentration as ΔF/F mean ± SEM and represented as dose–response curves.

| Molecule | R1 = Variant EC50/WT EC50 | Max ΔF/F0 | EC50 (read-out: EC50) [µM] | EC50 (brazzein) [µg/mL] |
| --- | --- | --- | --- | --- |
| CC1=CC(=O)NS(=O)(=O)O1 [Acesulfame K, acesulfame K] | 0.8 | 0.19 ± 0.01 | 487 ± 78 |  |
| O=S(=O)(O)NC1CCCCC1 [Cyclamate, cyclamate] |  |  | 1480 ± 45 |  |
| C[C@H](CC[C@@H](O[C@@H]1O[C@H](CO[C@@H]2O[C@H](CO)[C@@H](O)[C@H](O)[C@H]2O)[C@@H](O)[C@H](O)[C@H]1O[C@@H]1O[C@H](CO)[C@@H](O)[C@H](O)[C@H]1O)C(C)(C)O)[C@H]1CC[C@@]2(C)[C@@H]3CC=C4[C@@H](CC[C@H](O[C@@H]5O[C@H](CO[C@@H]6O[C@H](CO)[C@@H](O)[C@H](O)[C@H]6O)[C@@H](O)[C@H](O)[C@H]5O)C4(C)C)[C@]3(C)[C@H](O)C[C@]12C [Mogroside V, mogroside V] | 1.5 | 0.86 ± 0.01 | 47.7 ± 1.5 |  |
| COc1ccc(CCC(=O)c2c(O)cc(O[C@@H]3O[C@H](CO)[C@@H](O)[C@H](O)[C@H]3O[C@@H]3O[C@@H](C)[C@H](O)[C@@H](O)[C@H]3O)cc2O)cc1O [NHDC, neohesperidin dihydrochalcone] | 1.0 | 1.07 ± 0.06 | 49.4 ± 8.6 |  |
| COC(=O)[C@H](Cc1ccccc1)NC(=O)[C@H](CC(=O)O)NCCC(C)(C)C [Neotame] | 1.0 | 0.63 ± 0.02 | 1.22 ± 0.1 |  |
| C=C(C)[C@@H]1CC=C(/C=N/O)CC1 [Perillartine, perillartine] | 1.1 | 1.42 ± 0.26 | 15.3 ± 8.6 |  |

Next, values leading:

| R1 = Variant EC50/WT EC50 | Max ΔF/F0 | EC50 (read-out: EC50) [µM] | EC50 (brazzein) [µg/mL] | Molecule |
| --- | --- | --- | --- | --- |
| 0.9 | 0.64 ± 0.03 | 36.9 ± 3.6 |  | C=C1C[C@@]23CC[C@H]4[C@@](C)(CCC[C@@]4(C)C(=O)O[C@@H]4O[C@H](CO)[C@@H](O)[C@H](O[C@@H]5O[C@H](CO)[C@@H](O)[C@H](O)[C@H]5O)[C@H]4O[C@@H]4O[C@H](CO)[C@@H](O)[C@H](O)[C@H]4O)[C@@H]2CC[C@]1(O[C@@H]1O[C@H](CO)[C@@H](O)[C@H](O[C@@H]2O[C@H](CO)[C@@H](O)[C@H](O)[C@H]2O)[C@H]1O[C@@H]1O[C@H](CO)[C@@H](O)[C@H](O)[C@H]1O)C3 [Rebaudioside M, rebaudioside M] |
| 1.4 | 0.68 ± 0.02 | 155 ± 11 |  | OC[C@H]1O[C@H](O[C@]2(CCl)O[C@H](CCl)[C@@H](O)[C@@H]2O)[C@H](O)[C@@H](O)[C@H]1Cl [Sucralose] |
| 1.1 | 0.98 ± 0.03 |  | 120.8 ± 9.3 | brazzein (QDKCKKVYENYPVSKCQLANQCNYDCKLDKHARSGECFYDEKRNLQCICDYCEY; ends and bridges not checked; cysteine pairing not given here; UniProt P56552 1-54, looked up) [sweet-tasting protein obtained by recombinant production using the yeast Pichia pastoris] |
| 0.9 | 0.70 ± 0.04 |  |  | thaumatin |
|  |  | 9.8 ± 1.1 |  | thaumatin (protein, Eight disulfides, sweet-tasting plant protein, E957) ATFEIVNRCSYTVWAAASKGDAALDAGGRQLNSGESWTINVEPGTKGGKIWARTDCYFDDSGSGICKTGDCGGLLRCKRFGRPPTTLAEFSLNQYGKDYIDISNIKGFNVPMDFSPTTRGCRGVRCAADIVGQCPAKLKAPGGGCNDACTVFQTSEYCCTTGKCGPTEYSRFFKRLCPDAFSYVLDKPTTVTCPGSSNYRVTFCPTA |
